From ChEMBL document CHEMBL4387741, “Optimization of novel reversible Bruton's tyrosine kinase inhibitors identified using Tethering-fragment-based screens” (Bioorg Med Chem, 2019)

How the values were obtained:
[1] = target: Calcium/calmodulin-dependent protein kinase type II subunit delta (Homo sapiens) (UniProt Q13557); assay: Inhibition of wild-type human partial length CAMK2D (M1 to E329 residues) expressed in bacterial expression system at 1 uM by Kinomescan method relative to control
[2] = target: Cyclin-dependent kinase 15 (Homo sapiens) (UniProt Q96Q40); assay: Inhibition of wild-type human full length PFTAIRE2 (M1 to W384 residues) expressed in bacterial expression system at 1 uM by Kinomescan method relative to control
[3] = target: MAP kinase-activated protein kinase 2 (Homo sapiens) (UniProt P49137); assay: Inhibition of wild-type human partial length MAPKAPK2 (V48 to D345 residues) expressed in bacterial expression system at 1 uM by Kinomescan method relative to control
[4] = target: 3-phosphoinositide-dependent protein kinase 1 (Homo sapiens) (UniProt O15530); assay: Inhibition of wild-type human full length PDPK1 (M1 to Q556 residues) expressed in bacterial expression system at 1 uM by Kinomescan method relative to control
[5] = tested on: Tyrosine-protein kinase ABL1 (Homo sapiens), P00519 [Q252H]; assay: Inhibition of human phosphorylated ABL1 Q252H mutant expressed in mammalian expression system at 1 uM by Kinomescan method relative to control
[6] = target: Aurora kinase A (Homo sapiens) (UniProt O14965); assay: Inhibition of wild-type human partial length AURKA (E122 to K401 residues) expressed in mammalian expression system at 1 uM by Kinomescan method relative to control
[7] = target: Phosphatidylinositol 5-phosphate 4-kinase type-2 beta (Homo sapiens) (UniProt P78356); assay: Inhibition of wild-type human full length PIP5K2B (M1 to T416 residues) expressed in bacterial expression system at 1 uM by Kinomescan method relative to control
[8] = tested on: Mast/stem cell growth factor receptor Kit (Homo sapiens), P10721 [L576P]; assay: Inhibition of human partial length KIT L576P mutant (Y545 to D952 residues) expressed in bacterial expression system at 1 uM by Kinomescan method relative to control
[9] = target: Mitogen-activated protein kinase 8 (Homo sapiens) (UniProt P45983); assay: Inhibition of wild-type human full length JNK1 (M1 to Q384 residues) expressed in mammalian expression system at 1 uM by Kinomescan method relative to control
[10] = target: Cyclin-dependent kinase-like 5 (Homo sapiens) (UniProt O76039); assay: Inhibition of wild-type human partial length CDKL5 (M1 to S337 residues) expressed in mammalian expression system at 1 uM by Kinomescan method relative to control
[11] = target: Protein kinase C epsilon type (Homo sapiens) (UniProt Q02156); assay: Inhibition of wild-type human partial length PRKCE (A378 to P737 residues) expressed in mammalian expression system at 1 uM by Kinomescan method relative to control
[12] = tested on: Tyrosine-protein kinase ABL1 (Homo sapiens), P00519 [M351T]; assay: Inhibition of human phosphorylated ABL1 M351T mutant (S229 to K512 residues) expressed in mammalian expression system at 1 uM by Kinomescan method relative to control
[13] = target: Cyclin-dependent kinase 3 (Homo sapiens) (UniProt Q00526); assay: Inhibition of wild-type human full length CDK3 (M1 to H305 residues) expressed in bacterial expression system at 1 uM by Kinomescan method relative to control
[14] = target: Ribosomal protein S6 kinase alpha-4 (Homo sapiens) (UniProt O75676); assay: Inhibition of wild-type human partial length C-terminal RPS6KA4 kinase domain 2 (M375 to T705 residues) expressed in mammalian expression system at 1 uM by Kinomescan method relative to control
[15] = tested on: Receptor-type tyrosine-protein kinase FLT3 (Homo sapiens), P36888 [UNDEFINED MUTATION]; assay: Inhibition of human partial length FLT3 ITD/F691L double mutant expressed in bacterial expression system at 1 uM by Kinomescan method relative to control
[16] = target: Ribosomal protein S6 kinase alpha-1 (Homo sapiens) (UniProt Q15418); assay: Inhibition of wild-type human partial length C-terminal RSK1 kinase domain 2 (P360 to L681 residues) expressed in bacterial expression system at 1 uM by Kinomescan method relative to control
[17] = target: Protein kinase C delta type (Homo sapiens) (UniProt Q05655); assay: Inhibition of wild-type human partial length PRKCD (Q328 to D676 residues) expressed in bacterial expression system at 1 uM by Kinomescan method relative to control
[18] = target: G protein-coupled receptor kinase 4 (Homo sapiens) (UniProt P32298); assay: Inhibition of wild-type human full length GRK4 (M1 to C578 residues) expressed in bacterial expression system at 10 uM by Kinomescan method relative to control
[19] = tested on: Receptor-type tyrosine-protein kinase FLT3 (Homo sapiens), P36888 [K663Q]; assay: Inhibition of human partial length FLT3 K663Q mutant (V592 to Y969 residues) expressed in bacterial expression system at 10 uM by Kinomescan method relative to control
[20] = target: cGMP-dependent protein kinase 1 (Homo sapiens) (UniProt Q13976); assay: Inhibition of wild-type human partial length PRKG1 (L339 to F686 residues) expressed in bacterial expression system at 10 uM by Kinomescan method relative to control
[21] = target: Calcium/calmodulin-dependent protein kinase type 1D (Homo sapiens) (UniProt Q8IU85); assay: Inhibition of wild-type human partial length CAMK1D (M1 to K299 residues) expressed in bacterial expression system at 10 uM by Kinomescan method relative to control
[22] = target: Tyrosine-protein kinase SYK (Homo sapiens) (UniProt P43405); assay: Inhibition of wild-type human partial length SYK (D354 to N635 residues) expressed in bacterial expression system at 10 uM by Kinomescan method relative to control
[23] = target: Serine/threonine-protein kinase MRCK alpha (Homo sapiens) (UniProt Q5VT25); assay: Inhibition of wild-type human partial length MRCKA (L57 to V418 residues) expressed in bacterial expression system at 10 uM by Kinomescan method relative to control
[24] = target: Microtubule-associated serine/threonine-protein kinase 1 (Homo sapiens) (UniProt Q9Y2H9); assay: Inhibition of wild-type human partial length MAST1 (S346 to V730 residues) expressed in mammalian expression system at 10 uM by Kinomescan method relative to control
[25] = tested on: Tyrosine-protein kinase ABL1 (Homo sapiens), P00519 [F317I]; assay: Inhibition of human non-phosphorylated ABL1 F317I mutant (S229 to K512 residues) expressed in mammalian expression system at 10 uM by Kinomescan method relative to control
[26] = target: Receptor-interacting serine/threonine-protein kinase 4 (Homo sapiens) (UniProt P57078); assay: Inhibition of wild-type human partial length RIPK4 (M1 to V303 residues) expressed in mammalian expression system at 10 uM by Kinomescan method relative to control
[27] = tested on: Hepatocyte growth factor receptor (Homo sapiens), P08581 [Y1235D]; assay: Inhibition of human partial length MET Y1235D mutant (D1010 to S1367 residues) expressed in bacterial expression system at 10 uM by Kinomescan method relative to control

Serine/threonine-protein kinase MRCK alpha (Homo sapiens), sequence (Q5VT25 whole entry, the tested form may be a part): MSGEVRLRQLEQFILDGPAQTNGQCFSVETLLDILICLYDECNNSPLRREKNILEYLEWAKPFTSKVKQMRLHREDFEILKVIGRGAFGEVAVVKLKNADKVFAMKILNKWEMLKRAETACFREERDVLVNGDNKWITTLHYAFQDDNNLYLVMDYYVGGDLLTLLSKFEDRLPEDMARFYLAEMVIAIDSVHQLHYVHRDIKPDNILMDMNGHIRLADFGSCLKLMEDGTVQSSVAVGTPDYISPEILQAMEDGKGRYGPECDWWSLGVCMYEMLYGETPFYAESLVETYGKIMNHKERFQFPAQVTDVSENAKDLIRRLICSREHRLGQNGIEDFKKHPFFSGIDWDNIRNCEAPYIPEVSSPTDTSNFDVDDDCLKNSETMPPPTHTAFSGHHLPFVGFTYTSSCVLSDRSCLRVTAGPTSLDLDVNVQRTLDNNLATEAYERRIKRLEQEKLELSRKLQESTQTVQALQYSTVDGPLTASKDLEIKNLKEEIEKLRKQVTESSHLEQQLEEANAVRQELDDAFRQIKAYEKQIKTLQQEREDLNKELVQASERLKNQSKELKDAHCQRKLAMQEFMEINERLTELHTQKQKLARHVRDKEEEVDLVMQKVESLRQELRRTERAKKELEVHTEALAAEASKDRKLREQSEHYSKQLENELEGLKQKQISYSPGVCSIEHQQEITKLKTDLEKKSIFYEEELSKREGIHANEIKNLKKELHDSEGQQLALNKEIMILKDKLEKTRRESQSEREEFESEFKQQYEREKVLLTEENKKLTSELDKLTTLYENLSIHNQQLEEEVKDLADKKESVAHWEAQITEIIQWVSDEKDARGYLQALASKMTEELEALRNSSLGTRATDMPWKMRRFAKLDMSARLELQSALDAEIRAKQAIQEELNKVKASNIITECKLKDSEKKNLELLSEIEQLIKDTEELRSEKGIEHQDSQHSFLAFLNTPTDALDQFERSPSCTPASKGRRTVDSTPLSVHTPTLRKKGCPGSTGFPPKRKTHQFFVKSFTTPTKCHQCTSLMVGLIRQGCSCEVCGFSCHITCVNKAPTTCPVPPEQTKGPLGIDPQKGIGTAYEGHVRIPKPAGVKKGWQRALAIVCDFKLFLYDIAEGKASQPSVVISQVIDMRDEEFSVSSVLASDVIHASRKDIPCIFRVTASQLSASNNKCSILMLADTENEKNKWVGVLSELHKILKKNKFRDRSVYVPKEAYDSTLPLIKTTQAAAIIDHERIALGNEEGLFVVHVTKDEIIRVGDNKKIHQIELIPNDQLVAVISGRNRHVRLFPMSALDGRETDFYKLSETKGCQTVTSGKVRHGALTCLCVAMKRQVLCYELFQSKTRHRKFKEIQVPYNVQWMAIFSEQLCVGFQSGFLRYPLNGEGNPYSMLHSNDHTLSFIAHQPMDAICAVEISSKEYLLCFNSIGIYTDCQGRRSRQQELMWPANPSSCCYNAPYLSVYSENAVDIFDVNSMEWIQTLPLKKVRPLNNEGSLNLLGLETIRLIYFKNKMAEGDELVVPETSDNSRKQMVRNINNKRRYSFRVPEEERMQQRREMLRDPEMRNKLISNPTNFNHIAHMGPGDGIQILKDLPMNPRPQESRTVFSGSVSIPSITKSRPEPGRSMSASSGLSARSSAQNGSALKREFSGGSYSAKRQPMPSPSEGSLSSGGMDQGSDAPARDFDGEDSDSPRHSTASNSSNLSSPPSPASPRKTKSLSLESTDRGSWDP
Cyclin-dependent kinase 15 (Homo sapiens), sequence (Q96Q40 whole entry, the tested form may be a part): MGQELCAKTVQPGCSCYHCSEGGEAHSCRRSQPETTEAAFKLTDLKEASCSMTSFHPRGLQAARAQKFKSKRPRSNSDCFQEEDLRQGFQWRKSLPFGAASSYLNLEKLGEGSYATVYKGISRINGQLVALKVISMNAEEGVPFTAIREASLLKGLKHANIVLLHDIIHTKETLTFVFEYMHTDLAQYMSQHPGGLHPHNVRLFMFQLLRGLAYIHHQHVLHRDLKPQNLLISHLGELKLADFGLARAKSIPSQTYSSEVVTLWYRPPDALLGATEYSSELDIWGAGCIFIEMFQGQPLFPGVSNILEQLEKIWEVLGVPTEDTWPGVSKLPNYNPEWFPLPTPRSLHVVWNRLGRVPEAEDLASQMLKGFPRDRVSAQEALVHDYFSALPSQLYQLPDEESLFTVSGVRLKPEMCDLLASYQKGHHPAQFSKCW
MAP kinase-activated protein kinase 2 (Homo sapiens), sequence (P49137 whole entry, looked up, the tested form may be a part): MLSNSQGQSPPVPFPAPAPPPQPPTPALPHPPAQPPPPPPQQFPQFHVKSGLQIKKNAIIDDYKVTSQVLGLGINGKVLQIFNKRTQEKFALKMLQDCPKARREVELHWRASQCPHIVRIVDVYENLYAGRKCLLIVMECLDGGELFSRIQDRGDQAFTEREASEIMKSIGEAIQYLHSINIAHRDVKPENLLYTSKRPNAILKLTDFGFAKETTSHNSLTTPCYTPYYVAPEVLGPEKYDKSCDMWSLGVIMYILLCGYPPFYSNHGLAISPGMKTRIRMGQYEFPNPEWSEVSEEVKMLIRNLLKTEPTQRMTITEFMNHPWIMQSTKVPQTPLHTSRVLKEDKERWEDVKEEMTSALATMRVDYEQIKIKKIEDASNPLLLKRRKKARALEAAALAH
Aurora kinase A (Homo sapiens), sequence (O14965 whole entry, the tested form may be a part): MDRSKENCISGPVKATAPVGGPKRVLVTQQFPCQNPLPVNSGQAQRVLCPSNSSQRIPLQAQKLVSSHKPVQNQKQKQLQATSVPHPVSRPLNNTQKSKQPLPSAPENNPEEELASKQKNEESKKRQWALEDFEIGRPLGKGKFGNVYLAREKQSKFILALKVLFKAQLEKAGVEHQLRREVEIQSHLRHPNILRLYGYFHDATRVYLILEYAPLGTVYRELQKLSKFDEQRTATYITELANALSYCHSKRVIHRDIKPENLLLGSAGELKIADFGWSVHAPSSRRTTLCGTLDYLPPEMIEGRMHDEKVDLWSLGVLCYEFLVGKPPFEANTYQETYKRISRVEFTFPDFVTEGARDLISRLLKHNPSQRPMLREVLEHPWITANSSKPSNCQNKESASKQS
Mitogen-activated protein kinase 8 (Homo sapiens), sequence (P45983 whole entry, the tested form may be a part): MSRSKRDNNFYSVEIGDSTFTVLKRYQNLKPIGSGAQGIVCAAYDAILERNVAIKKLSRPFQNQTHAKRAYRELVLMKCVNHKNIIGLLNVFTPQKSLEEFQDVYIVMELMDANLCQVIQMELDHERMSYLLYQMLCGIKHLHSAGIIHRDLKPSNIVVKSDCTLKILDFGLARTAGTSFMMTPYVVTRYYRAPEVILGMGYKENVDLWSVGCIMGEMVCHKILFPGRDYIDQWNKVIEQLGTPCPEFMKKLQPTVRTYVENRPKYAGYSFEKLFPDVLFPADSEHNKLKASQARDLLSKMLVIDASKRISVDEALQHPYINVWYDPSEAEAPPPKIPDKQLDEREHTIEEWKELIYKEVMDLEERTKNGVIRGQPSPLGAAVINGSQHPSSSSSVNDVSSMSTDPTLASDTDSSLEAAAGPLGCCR
Receptor-interacting serine/threonine-protein kinase 4 (Homo sapiens), sequence (P57078 whole entry, the tested form may be a part): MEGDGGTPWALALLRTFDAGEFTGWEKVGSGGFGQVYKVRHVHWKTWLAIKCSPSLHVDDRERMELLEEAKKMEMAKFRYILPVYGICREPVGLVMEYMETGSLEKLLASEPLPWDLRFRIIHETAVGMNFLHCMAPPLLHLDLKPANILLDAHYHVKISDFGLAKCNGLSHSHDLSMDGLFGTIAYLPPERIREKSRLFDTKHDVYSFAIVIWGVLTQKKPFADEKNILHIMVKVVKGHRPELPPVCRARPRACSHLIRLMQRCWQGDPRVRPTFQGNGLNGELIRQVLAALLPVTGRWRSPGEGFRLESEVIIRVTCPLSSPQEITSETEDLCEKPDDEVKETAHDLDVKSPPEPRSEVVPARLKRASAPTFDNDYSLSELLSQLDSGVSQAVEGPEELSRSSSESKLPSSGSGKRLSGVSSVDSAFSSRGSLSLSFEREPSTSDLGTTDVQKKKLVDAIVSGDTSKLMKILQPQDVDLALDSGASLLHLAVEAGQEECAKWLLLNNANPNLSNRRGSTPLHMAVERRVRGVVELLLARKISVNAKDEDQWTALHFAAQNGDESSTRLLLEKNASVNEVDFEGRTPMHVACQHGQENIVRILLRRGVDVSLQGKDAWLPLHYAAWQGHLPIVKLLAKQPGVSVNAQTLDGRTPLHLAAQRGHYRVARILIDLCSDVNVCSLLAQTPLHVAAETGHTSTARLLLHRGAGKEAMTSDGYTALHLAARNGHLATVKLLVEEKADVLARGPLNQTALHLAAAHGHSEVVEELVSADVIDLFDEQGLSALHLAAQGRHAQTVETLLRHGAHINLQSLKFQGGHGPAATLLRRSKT
Ribosomal protein S6 kinase alpha-4 (Homo sapiens), sequence (O75676 whole entry, looked up, the tested form may be a part): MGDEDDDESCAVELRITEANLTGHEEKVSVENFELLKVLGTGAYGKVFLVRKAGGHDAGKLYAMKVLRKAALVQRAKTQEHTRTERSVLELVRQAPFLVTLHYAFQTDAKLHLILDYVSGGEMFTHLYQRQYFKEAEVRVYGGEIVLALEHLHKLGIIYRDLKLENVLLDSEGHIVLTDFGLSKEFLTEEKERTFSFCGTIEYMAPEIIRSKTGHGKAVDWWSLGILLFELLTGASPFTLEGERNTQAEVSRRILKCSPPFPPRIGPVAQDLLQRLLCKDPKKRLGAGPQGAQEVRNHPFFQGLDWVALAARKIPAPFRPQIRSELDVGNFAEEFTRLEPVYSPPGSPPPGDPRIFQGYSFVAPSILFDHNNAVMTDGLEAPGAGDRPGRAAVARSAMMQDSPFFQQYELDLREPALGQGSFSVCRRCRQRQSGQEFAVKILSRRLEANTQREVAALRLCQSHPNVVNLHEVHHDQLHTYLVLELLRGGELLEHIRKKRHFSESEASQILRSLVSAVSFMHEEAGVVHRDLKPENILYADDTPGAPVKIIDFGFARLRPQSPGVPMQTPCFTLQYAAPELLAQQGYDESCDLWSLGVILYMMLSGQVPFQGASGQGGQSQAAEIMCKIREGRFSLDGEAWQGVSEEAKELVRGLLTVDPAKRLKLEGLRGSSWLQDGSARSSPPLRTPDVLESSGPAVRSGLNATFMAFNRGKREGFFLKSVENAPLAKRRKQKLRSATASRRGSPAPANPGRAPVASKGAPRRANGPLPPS

What does the source list for O=C(Nc1cccc([C@@H]2CN(c3ncnc4[nH]ccc34)CCN2CCO)c1)Nc1c(F)cccc1N1CCCC1?
inhibition [1]: 100%; inhibition [2]: 91%; inhibition [3]: 100%; inhibition [4]: 34%; inhibition [5]: 95%; inhibition [6]: 3.6%; inhibition [7]: 96%; inhibition [8]: 35%; inhibition [9]: 70%; inhibition [10]: 100%; inhibition [11]: 72%; inhibition [12]: 90%; inhibition [13]: 88%; inhibition [14]: 97%; inhibition [15]: 4.6%; inhibition [16]: 88%; inhibition [17]: 85%

Which inhibition [18] does the source give for O=C(Nc1cccc([C@H]2CCCN(c3ncnc4[nH]ccc34)C2)c1)Nc1ccccc1N1CCCC1 here?
The inhibition was 7.4%.

And the inhibition [19]?
Its inhibition is 8.1%.

And the inhibition [20]?
Its inhibition is 44%.

What about the inhibition [21] of the same compound?
Its inhibition is 54%.

What about the inhibition [22] of the same compound?
Its inhibition is 52%.

What about the inhibition [23] of the same compound?
The inhibition was 100%.

What about the inhibition [24] of the same compound?
The inhibition was 69%.

What about the inhibition [25] of the same compound?
The inhibition was 100%.

What about the inhibition [26] of the same compound?
The inhibition was 71%.

What about the inhibition [27] of the same compound?
Its inhibition is 78%.
